Results reported in patent publication US20050101530A1, “Cellular virus receptors and methods of use” (Topigen Pharmaceutique, Inc., priority 2001, published 2005).

Tests used:
RSV A2 = experiment: RSV plaque formation (infectivity) inhibition test in Hep-2 cell cultures; assay type: cell-based, respiratory syncytial virus (RSV) A2 strain; details: Hep-2 cells
Experimental: The A2 strain of RSV was purchased from ATCC. The RSV was inoculated into a sub-confluent Hep-2 cell monolayer. […] The contents of the flask was resuspended in 1 ml aliquots, quick-frozen with alcohol/dry ice, and stored at −80° C. The virus titer of RSV was assessed by quantitative plaque forming assay and maintained titers in the range of 10^6 to 10^8pfu/ml for more than 6 months at −70° C.
Hep2 cells are known for being a permissive target cell for RSV infection and these cells express several chemokine receptors. Serial rounds of infections were performed with Hep-2 cells at different MOIs, ranging from 1:5 to 1:0.1. Hep-2 cells were systematically infected at these ranges of MOI. Subsequent experimental infection of Hep-2 cells with RSV were realized at a MOI 1:0.1. We investigated the role of the chemokine receptor CCR3 in supporting RSV infection. Immunoprecipitation technique followed by analysis of the immunoprecipitated complexes by SDS-PAGE were performed in order to gain insight into the physical contact between the RSV-G protein and the CCR3 receptor. Immunoprecipitation of the immune complexes will allow to assess, using SDS-PAGE and a specific antibody for the RSV-G protein, whether or not the contact of the virus glycoprotein with the cell receptor occurred. […] We noticed here that although the monoclonal antibody to RSV-G protein was diluted to 1:5000, it still cross reacted with a determinant of 43-45 kDa in all non infected or control cell types used in this work (see FIG. 1 lane 2). However, keeping in mind that all cell extracts were normalized to the same quantity of proteins before being loaded into SDS-PAGE. Therefore, the high intensity of the band, recognized by anti-RSV-G, and corresponding to the RSV-G protein precursor allowed us to differentiate between real infection and the background due to cross reactivity. We assessed if the CCR3 receptor was involved in virus infectivity of epithelial cells by performing RSV infectivity inhibition tests as described above. […]

[1] = target: T1, RSV-G protein and CCR3 receptor (Homo sapiens, UniProt P51677); experiment: Anti-CCR3 immunoprecipitation and anti-RSV-G Western blot of RSV-infected Hep2 cells; assay type: cell-based; details: Hep2 cells infected by RSV in the presence of 2 μg/ml of Eotaxin; FIG. 1 lane 3
T1 construct: physical contact between the CCR3 receptor and the RSV-G protein in Hep-2 cells; endogenous in cells; host or cells: Hep-2 epithelial cells (ATCC) infected with RSV A2 (ATCC)
T1 sequence (P51677 1-355): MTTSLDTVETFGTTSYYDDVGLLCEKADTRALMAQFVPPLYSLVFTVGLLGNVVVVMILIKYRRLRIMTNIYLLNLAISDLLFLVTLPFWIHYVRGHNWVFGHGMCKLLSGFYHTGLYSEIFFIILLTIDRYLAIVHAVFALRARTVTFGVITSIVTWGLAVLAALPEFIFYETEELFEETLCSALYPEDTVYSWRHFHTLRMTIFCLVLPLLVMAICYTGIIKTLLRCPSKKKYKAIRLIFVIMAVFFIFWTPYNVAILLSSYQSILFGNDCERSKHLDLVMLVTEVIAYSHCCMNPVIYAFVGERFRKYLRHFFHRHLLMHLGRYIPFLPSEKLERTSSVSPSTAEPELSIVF
Experimental: (§1) A549, Hep2, or GHOST cells were infected by RSV A2 strain at different multiplicity of infection (MOI). The results presented in this work were performed at a MOI of 1:0.1. The MOI 1:0.1 is the cut off of permissive and restrictive infection. The cells expressing the chemokine receptor CCR3 (Ghost-CCR3+, Hep2 and A549) were found permissive at a MOI 1:0.1 and the chemokine receptor CCR3 is considered as the high affinity coreceptor for RSV infection. Infection experiments undertaken with GHOST cells expressing only one of the following chemokine receptors the CCR1, CCR2b, CCR4, CCR5, CCR8 or CXCR4, were performed at a MOI of 1:2. These GHOST cells (CCR1, CCR-2b, CCR-4, CCR-5, CCR-8 and CXCR4), were not infected at a MOls of 1:0.1 and 1:1. The chemokine receptors CCR1, CCR2, CCR4, CCR5, CCR8 were considered subsequently as low affinity coreceptors in regard to RSV infection. […] These cells were not infected by RSV at a MOI 1:5 and lesser (1:4, 1:3, 1:2, 1:1 and 1:0.1).
Cells were infected by RSV for 2 hr incubation in the presence or the absence of 2 μg/ml of Eotaxin, or of PBS solution and cultured for 3 days. […]
Hep2 cells are known for being a permissive target cell for RSV infection and these cells express several chemokine receptors. […] However, keeping in mind that all cell extracts were normalized to the same quantity of proteins before being loaded into SDS-PAGE. […]

RSV = RSV infection of CCR3 transfected GHOST cells, immunostaining; assay type: cell-based, respiratory syncytial virus (RSV) A2 strain; details: Eotaxin 1 μg/ml, anti-RSV F-protein immunostaining, FIG. 3B
Experimental: as §1
We have also assessed whether CCR3 transfected GHOST cells support RSV infection and produce infectious virus. We performed this by using the same methods as described in FIG. 3. […]
After fixing the cells in 4% paraformaldehyde in phosphate buffered saline (PBS), the presence of virus was detected by immunostaining. […]

[2] = target: human chemokine receptor CCR3 (human) (UniProt P51677); experiment: cell-based or functional assay

Substance: Eotaxin
- percent inhibition of virus plaques formation (RSV A2; Eotaxin greater or equal to 0.5 μg/ml, compared to PBS-treated cultures, three days post infection): 80%
- RSV plaques as compared with PBS controls (RSV A2; each concentration of Eotaxin tested (0.01 to 1.0 μg/ml), p<0.05, Student's t-test): statistically fewer RSV plaques
- timing of inhibition of RSV infection (FIG. 2) (RSV A2; eotaxin added to culture medium, during virus adsorption): inhibited RSV infection most effectively early in infection
- detection of RSV-G protein by RSV-G mAb in anti-CCR3 immunoprecipitated extracts [1]: failed to recognize the RSV-G protein
- RSV infection of GHOST/CCR3 cells by immunostaining (RSV): inhibits infection by RSV
- RSV infection of GHOST/CCR3 cells by immunostaining (RSV; listed as eotaxin): inhibits cellular infection by RSV

Substance: Eotaxin (from UniProt P51671 24-97) (ligand)
- percent inhibition of virus plaques formation (RSV A2 on Hep-2 cells) [2]: 80%

Substance: Rat anti-human CCR3 (clone 61828.111) (antibody)
- decrease in RSV infection of CCR3+ GHOST cells, immunostaining [2]: 80%
